Test results published in PubChem BioAssay (NCI).
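Where inhibition never reached the appropriate level, the endpoint shown equals the highest concentration tested. Otherwise, values were interpolated linearly from a five-concentration, 48-hour dose response in 96-well plates. Abbreviation: GI50, concentration required for 50% inhibition of growth. TGI is the concentration that stops growth completely.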

Tests used:
Assay in all cases: NCI tumour cell line growth inhibition, 48 h
HCT-15 colon = system: HCT-15 colon
U251 CNS = system: U251 CNS
SNB-75 CNS = system: SNB-75 CNS
ACHN renal = system: ACHN renal
SF-295 CNS = system: SF-295 CNS
OVCAR-3 ovarian = system: OVCAR-3 ovarian
COLO 205 colon = system: COLO 205 colon
SR leukemia = system: SR leukemia
SN12C renal = system: SN12C renal
HT29 colon = system: HT29 colon

Structure (SMILES)	GI50 (HCT-15 colon) [µM]	TGI (HCT-15 colon) [µM]	GI50 (U251 CNS) [µM]	TGI (U251 CNS) [µM]	GI50 (SNB-75 CNS) [µM]	TGI (SNB-75 CNS) [µM]	GI50 (ACHN renal) [µM]	TGI (ACHN renal) [µM]	GI50 (SF-295 CNS) [µM]	TGI (SF-295 CNS) [µM]	GI50 (OVCAR-3 ovarian) [µM]	TGI (OVCAR-3 ovarian) [µM]	GI50 (COLO 205 colon) [µM]	TGI (COLO 205 colon) [µM]	GI50 (SR leukemia) [nM]	TGI (SR leukemia) [µM]	GI50 (SN12C renal) [µM]	TGI (SN12C renal) [µM]	GI50 (HT29 colon) [µM]	TGI (HT29 colon) [µM]
COc1ccc(OC)c(/C=C2\SC(=S)NC2=O)c1	26.2	93	41	> 100	29.3	> 100	26.7	95.1	42.8	> 100	36.7	> 100	48.3	> 100	37600	> 100	24.8	77.4	42.1	> 100
COC(=O)[C@@]1(C)CC[C@]2(C)CC[C@]3(C)C4=CC=C5C(=CC(=O)C(O)=C5C)[C@]4(C)[C@@H](O)C[C@@]3(C)[C@@H]2C1	5.07	17.7	8.71	18.7	11.6	26	3.8	13.4	13.2	28.4	8.63	18.5	7.36	22.2	2690	19	9.65	20.7	10.8	23.1
COc1ccc2c(c1)/C(=C\c1c(C)nc3sccn13)C(=O)N2	< 0.0468	> 27.1	–	> 100	0.372	> 100	–	69.4	< 0.0466	–	< 0.01	–	< 0.0506	–	30.9	0.38	0.0889	> 91.7	–	> 100
CC(C)[C@H]1CO[C@]2(C)[C@@H]3CN(Cc4ccccc4)C[C@@H]3C(=O)N12	–	> 100	–	> 100	–	> 100	–	> 100	–	> 100	–	> 100	–	> 100	–	> 100	–	> 100	–	> 100
COc1ccc(/C=C2\CCCC3=C2N=C2SC(C)=NN2C3c2ccc(OC)c(OC)c2)cc1OC (centres undefined)	3.49	19.4	26.2	> 100	13.7	64.2	4.2	33.3	14.8	> 100	4.62	74.9	5.24	> 100	3660	> 100	14	> 100	11.1	90.1
COc1cc(C2CC(c3ccc4c(c3)OCO4)=NN2C=O)cc(OC)c1OC (centres undefined)	1.58	> 100	4.42	> 100	1.13	5.43	3.53	> 100	0.735	4.26	0.965	3.25	1.3	5.91	520	> 100	13.6	> 100	0.467	> 100
O=C(/C=C/c1ccccc1)c1cc(Br)ccc1O	–	34.9	–	29.9	–	28.9	–	28.7	–	31.5	–	43	–	33.3	–	12.3	–	29.7	–	31
O=C1[C@H]2ON(c3ccccc3)C(c3ccccc3Cl)[C@H]2C(=O)N1c1ccc(Cc2ccc(N3C(=O)[C@@H]4ON(c5ccccc5)C(c5ccccc5Cl)[C@@H]4C3=O)cc2)cc1 (some centres undefined)	–	> 100	–	> 100	–	> 100	–	> 100	–	> 100	–	> 100	–	> 100	–	> 100	–	> 100	–	> 100
Cc1cc(N(CCCl)CCCl)ccc1C=Nc1ccc(-c2csc(Cc3ccccc3)n2)cc1	15.2	> 79.9	7.82	37.6	3.03	33.5	5.35	> 91.3	1.65	50.6	9.17	27	13.1	34.1	1070	73.2	3.85	62.8	17.3	47.2
CCCC(=O)OC1C(C(O)CO)OC2OC(C)(C)OC21 (centres undefined)	–	> 100	–	> 100	–	> 100	–	> 100	–	> 100	–	> 100	–	> 100	–	> 100	–	> 100	–	> 100
O=C(NCCCCCCNC(=O)n1cc(F)c(=O)[nH]c1=O)NCCCOCCOCCOCCOCCOCCOCCOCCOCCOCCOCCOCCOCCOCCOCCOCCOCCOCCOCCOCCOCCOCCCNC(=O)C(O)C(O)C(O)C(O)CO (centres undefined)	–	> 100	–	> 100	–	> 100	–	> 100	–	> 100	–	> 100	–	> 100	–	> 100	–	> 100	–	> 100
CC#C[C@]1(O)CC[C@H]2[C@@H]3CCC4=CC(=O)CCC4=C3[C@@H](c3ccc4c(c3)OCO4)C[C@@]21C	45.4	780	108	410	42.8	521	47.4	633	67.8	329	110	320	118	291	77200	479	83.2	464	225	> 1000
COc1cccc2c1c(C(=O)C(=O)Nc1cc(C)no1)cn2Cc1ccc(F)cc1	2.64	> 100	4.78	> 100	3.42	> 73.5	15.4	> 100	6.26	> 100	2.62	> 27.3	13.8	53	573	> 100	8.28	> 81.8	3.32	> 100
O=C1/C(=C\c2c[nH]c3ccccc23)c2ccccc2N1c1c(Cl)cccc1Cl	1.16	2.92	1.58	3.68	1.68	5.61	2.4	10.1	1.75	3.51	1.83	3.78	1.8	3.27	2330	5.16	1.53	2.89	1.85	3.4
